Values of other authors as cited in patent publication US20210260003A9 (AZIENDE CHIMICHE RIUNITE ANGELINI FRANCESCO A.C.R.A.F. …, priority 2017, published 2021).

What was measured:
[1] = orally administered

Row | Compound | peak concentration (time) [1] [h] | solubility in water [mg/mL]
1 | CC(C(=O)O)c1cccc(C(=O)c2ccccc2)c1 (centres unmarked) [ketoprofen] | 0.5 to 2 | 
2 | hydroxypropyl-β-cyclodextrin |  | 600
